The target in the assay is T1, human CXCR2 receptor (Homo sapiens, UniProt P25025).
T1 construct: purchased Biosignal Packard Inc; host or cells: CHO-K1 (Chinese hamster ovary) cell membranes
T1 sequence (P25025 1-360): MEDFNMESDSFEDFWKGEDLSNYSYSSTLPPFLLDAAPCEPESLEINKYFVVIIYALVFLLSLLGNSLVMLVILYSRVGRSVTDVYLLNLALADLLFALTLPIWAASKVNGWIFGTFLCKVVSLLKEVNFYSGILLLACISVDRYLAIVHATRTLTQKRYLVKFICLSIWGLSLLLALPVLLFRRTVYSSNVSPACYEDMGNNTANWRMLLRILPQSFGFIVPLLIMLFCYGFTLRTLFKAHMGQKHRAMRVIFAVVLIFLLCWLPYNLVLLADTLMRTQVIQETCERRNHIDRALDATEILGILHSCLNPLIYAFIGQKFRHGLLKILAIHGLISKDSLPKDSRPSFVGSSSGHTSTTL
Kind of assay: [35S]-GTPγS binding assay for human CXCR2 receptor using SPA technology. It counts as biochemical. The conditions noted are these: CHO-K1 membranes expressing human CXCR2, 100 nM IL-8. From the text:
[^35S]-GTPγS Binding Assay for Human CXCR2 Receptor Using SPA Technology
[^35S]-GTPγS (with specific activity 1082 Ci/mmol) and wheat germ agglutinin poly vinyl toluene scintillation proximity beads are purchased from Amersham Pharmacia Biotech. The Chinese hamster ovary cell (CHO-K1) membranes expressing human CXCR2 receptors are purchased from Biosignal Packard Inc. All other chemicals are of analytical grade. White non-binding surface 96 well Optiplate™ microplates are obtained from Packard. Recombinant human IL-8 is synthesised, cloned and expressed in Escherichia coli as described previously (Lindley I, et al., Proc. Natl. Acad. Sci., 1988, 85(23):9199).
The assay is performed in duplicate in 96 well Optiplate™ microplate in a final volume of 250 μl per well. Compounds are diluted in DMSO (0.5% final concentration) and incubated in 20 mM HEPES buffer pH 7.4 containing 10 mM MgCl2, 100 mM NaCl, 1 mM EDTA plus 100 nM IL-8, 50 μM GDP and 500 pM [^35S]GTPγS per well. SPA beads (1 mg/well final concentration) were pre-mixed with the membranes (10 μg/well final concentration) in assay buffer: 20 mM HEPES buffer pH 7.4 containing 10 mM MgCl2, 100 mM NaCl, 1 mM EDTA. The bead membrane mixture is added to each well, plates are sealed and incubated at room temperature for 60 minutes. The plate is centrifuged and read on Packard TopCount™ scintillation counter, program [^35S dpm] for 1 min/well. Data are expressed as the % response to 100 nM IL-8 minus basal.
(GTPγS is a poorly hydrolysed GTP analogue; its binding reports G protein activation.)

SMILES strings stand for the structures.

The IC50 is the concentration that inhibits the measured activity by half. High values mean lower potency, low ones higher potency.

Take `CCC(Nc1c(Nc2ccc(Cl)c(S(=O)(=O)N(C)OC)c2O)c(=O)c1=O)[C@H]1CCCO1` (stereo in doubt) [Example 4, 6-Chloro-3-{3,4-dioxo-2-[(R)-1-(tetrahydro-furan-2-yl)-propylamino]-cyclobut-1-enylamino}-2-hydroxy-N-methoxy-N-methyl-benzenesulfonamide]: the IC50 came to 13 nM.

The compound `CC[C@@H](Nc1c(Nc2ccc(Cl)c(S(=O)(=O)N(C)OC)c2O)c(=O)c1=O)c1ccc(C)o1` [Example 2, 6-Chloro-2-hydroxy-N-methoxy-N-methyl-3-{2-[(R)-1-(5-methyl-furan-2-yl)-propylamino]-3,4-dioxo-cyclobut-1-enylamino}-benzenesulfonamide] returned a half-maximal inhibitory concentration (IC50) of 2 nM.

In turn, `CC[C@@H](Nc1c(Nc2ccc(Cl)c(S(=O)(=O)N(CC)OC)c2O)c(=O)c1=O)[C@H]1CCCO1` [Example 2.13, 6-Chloro-3-{3,4-dioxo-2-[(R)-(R)-1-(tetrahydro-furan-2-yl)-propylamino]-cyclobut-1-enylamino}-N-ethyl-2-hydroxy-N-methoxy-benzene sulfonamide] yielded an IC50 of 6 nM.

`CON(C)S(=O)(=O)c1c(Cl)ccc(Nc2c(NC(C3CC3)C3CC3)c(=O)c2=O)c1O` [Example 2.17, 6-chloro-3-(2-(dicyclopropylmethylamino)-3,4-dioxocyclobut-1-enylamino)-2-hydroxy-N-methoxy-N-methylbenzenesulfonamide] displayed a 50% inhibitory concentration (IC50) of 8 nM.

On to `CCN(OC)S(=O)(=O)c1c(Cl)ccc(Nc2c(NC(C)C)c(=O)c2=O)c1O` [Example 2.19, 6-chloro-N-ethyl-2-hydroxy-3-(2-(isopropylamino)-3,4-dioxocyclobut-1-enylamino)-N-methoxybenzenesulfonamide], for which the 50% inhibitory concentration (IC50) came out at 9 nM.

Turning to `COCC(C)Nc1c(Nc2ccc(Cl)c(S(=O)(=O)N(C)OC)c2O)c(=O)c1=O` (stereo not shown) [Example 2.23, 6-chloro-2-hydroxy-N-methoxy-3-(2-(1-methoxypropan-2-ylamino)-3,4-dioxocyclobut-1-enylamino)-N-methylbenzenesulfonamide], the IC50 was determined as 21 nM.

For the compound `CCC(Nc1c(Nc2ccc(Cl)c(S(=O)(=O)N(C)OC)c2O)c(=O)c1=O)c1cccc(C)n1` (stereo not shown) [Example 2.27, 6-chloro-2-hydroxy-N-methoxy-N-methyl-3-(2-(1-(6-methylpyridin-2-yl)propylamino)-3,4-dioxocyclobut-1-enylamino)benzenesulfonamide], the IC50 was determined as 234 nM.

On to `CC[C@@H](Nc1c(Nc2ccc(Cl)c(S(=O)(=O)N3C[C@H](O)CO3)c2O)c(=O)c1=O)[C@H]1CC[C@@H](C)O1` [Example 2.32, 3-(4-chloro-2-hydroxy-3-((S)-4-hydroxyisoxazolidin-2-ylsulfonyl)phenylamino)-4-((R)-1-((2R,5R)-5-methyltetrahydrofuran-2-yl)propylamino)cyclobut-3-ene-1,2-dione], for which the IC50 was found to be 11 nM.

In turn, `CON(C)S(=O)(=O)c1c(Cl)ccc(Nc2c(NC(C)C)c(=O)c2=O)c1O` [Example 2.35, 6-chloro-2-hydroxy-3-(2-(isopropylamino)-3,4-dioxocyclobut-1-enylamino)-N-methoxy-N-methylbenzenesulfonamide] showed a 50% inhibitory concentration (IC50) of 14 nM.

`CC[C@@H](Nc1c(Nc2ccc(Cl)c(S(=O)(=O)N(CC)OC)c2O)c(=O)c1=O)c1ccc(C)o1` [Example 2.43, (R)-6-chloro-N-ethyl-2-hydroxy-N-methoxy-3-(2-(1-(5-methylfuran-2-yl)propylamino)-3,4-dioxocyclobut-1-enylamino)benzenesulfonamide] yielded an IC50 of 17 nM.

`CCOC[C@H](C)Nc1c(Nc2ccc(Cl)c(S(=O)(=O)N(C)OC)c2O)c(=O)c1=O` [Example 2.47, (S)-6-chloro-3-(2-(1-ethoxypropan-2-ylamino)-3,4-dioxocyclobut-1-enylamino)-2-hydroxy-N-methoxy-N-methylbenzenesulfonamide] had an IC50 of 19 nM.

The compound `CCC(Nc1c(Nc2ccc(Cl)c(S(=O)(=O)N(C)OC)c2O)c(=O)c1=O)c1cccnc1` (stereo not shown) [Example 2.50, 6-chloro-3-(3,4-dioxo-2-(1-(pyridin-3-yl)propylamino)cyclobut-1-enylamino)-2-hydroxy-N-methoxy-N-methylbenzenesulfonamide] gave an IC50 of 93 nM.

`CCCC(CCC)Nc1c(Nc2ccc(Cl)c(S(=O)(=O)N(C)OC)c2O)c(=O)c1=O` [Example 2.57, 6-chloro-3-(2-(heptan-4-ylamino)-3,4-dioxocyclobut-1-enylamino)-2-hydroxy-N-methoxy-N-methylbenzenesulfonamide] yielded an IC50 of 26 nM.

For the compound `CCN(OC)S(=O)(=O)c1c(Cl)ccc(Nc2c(N[C@H](C)c3ccccc3)c(=O)c2=O)c1O` [Example 2.58, (R)-6-chloro-3-(3,4-dioxo-2-(1-phenylethylamino)cyclobut-1-enylamino)-N-ethyl-2-hydroxy-N-methoxybenzenesulfonamide], the IC50 amounted to 28 nM.

In the case of `CON(C)S(=O)(=O)c1c(Cl)ccc(Nc2c(NC3CCCC3)c(=O)c2=O)c1O` [Example 2.60, 6-chloro-3-(2-(cyclopentylamino)-3,4-dioxocyclobut-1-enylamino)-2-hydroxy-N-methoxy-N-methylbenzenesulfonamide], the half-inhibitory concentration (IC50) stood at 30 nM.

For `CC[C@@H](Nc1c(Nc2cccc(S(=O)(=O)N(CC)OC)c2O)c(=O)c1=O)[C@@H]1CCCO1` [Example 2.71, 3-(3,4-dioxo-2-((R)-1-((S)-tetrahydrofuran-2-yl)propylamino)cyclobut-1-enylamino)-N-ethyl-2-hydroxy-N-methoxybenzenesulfonamide], the IC50 amounted to 56 nM.

`CON(C)S(=O)(=O)c1c(Cl)ccc(Nc2c(N[C@H](C)c3cnn(C)c3)c(=O)c2=O)c1O` [Example 2.95, (R)-6-chloro-2-hydroxy-N-methoxy-N-methyl-3-(2-(1-(1-methyl-1H-pyrazol-4-yl)ethylamino)-3,4-dioxocyclobut-1-enylamino)benzenesulfonamide]: the IC50 came out at 283 nM.

As for `CON(C)S(=O)(=O)c1c(Cl)ccc(Nc2c(N[C@H]3CCSC3)c(=O)c2=O)c1O` [Example 3, 6-Chloro-3-{3,4-dioxo-2-[(S)-(tetrahydro-thiophen-3-yl)amino]-cyclobut-1-enylamino}-2-hydroxy-N-methoxy-N-methyl-benzenesulfonamide], the IC50 came to 26 nM.

The compound `CON(C)S(=O)(=O)c1c(Cl)ccc(Nc2c(N[C@H](C)c3ccccc3)c(=O)c2=O)c1O` [Example 5, 6-Chloro-3-[3,4-dioxo-2-((R)-1-phenyl-ethylamino)-cyclobut-1-enylamino]-2-hydroxy-N-methoxy-N-methyl-benzenesulfonamide] gave an IC50 of 33 nM.

Compound `CC[C@@H](Nc1c(Nc2ccc(Cl)c(S(=O)(=O)N(C)OC)c2O)c(=O)c1=O)[C@H]1CC[C@@H](C)O1` [Example 6, 6-Chloro-2-hydroxy-N-methoxy-N-methyl-3-{2-[(R)-1-((2R,5R)-5-methyl-tetrahydro-furan-2-yl)-propylamino]-3,4-dioxo-cyclobut-1-enylamino}-benzene sulfonamide] had an IC50 of 28 nM.

As for `CC[C@@H](Nc1c(Nc2ccc(Cl)c(S(=O)(=O)N(C)OC)c2O)c(=O)c1=O)c1ccccn1` [Example 7, 6-Chloro-3-[3,4-dioxo-2-((R)-1-pyridin-2-yl-propylamino)-cyclobut-1-enylamino]-2-hydroxy-N-methoxy-N-methyl-benzenesulfonamide], the IC50 is 4 nM.

`CCC(CC)Nc1c(Nc2ccc(Cl)c(S(=O)(=O)N(C)OC)c2O)c(=O)c1=O` [Example 8, 6-Chloro-3-[2-(1-ethyl-propylamino)-3,4-dioxo-cyclobut-1-enylamino]-2-hydroxy-N-methoxy-N-methyl-benzenesulfonamide] had an IC50 of 5 nM.

Source of the values: patent US7989497B2, “Squaramide derivatives as CXCR2 antagonist” (Novartis AG, priority 2008, dated 2011).
